# Results: PubChem BioAssay AID816 (SRMLSC, 2007)
# The source made the active and inactive calls. How the calls were made is not given here.
# System: S. cerevisiae GAL1 promoter reporter activation counterscreen
# Assay: GAL1 promoter activators in yeast, artefact control for yeast lifespan extension project, S. cerevisiae (AID 816);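 further: yeast growth read after 24 h of incubation with compounds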
row,Compound,EC50
1,CCc1c(C)c(C#N)c2nc3ccccc3n2c1Cl,> 40 µM (inactive)
2,Cc1ncc(C23CC4CC(CC(C4)C2)C3)[nH]1,> 40 µM (inactive)
3,Cc1ccc2[nH]c3c(c2c1)CC/C(=C/c1ccccc1)C3=O,> 40 µM (inactive)
4,CCOc1ccc(/C=C/C(=O)c2c(O)c3ccccc3oc2=O)cc1,> 40 µM (inactive)
5,CC(C)(C)C1CCc2[nH]nc(C(=O)O)c2C1 (centres undefined),> 40 µM (inactive)
6,C=CCn1c(-c2ccc(OC)cc2)csc1=Nc1c(C)n(C)n(-c2ccccc2)c1=O,> 40 µM (inactive)
7,CS(=O)(=O)c1nc(-c2ccco2)cc(C(F)(F)F)n1,> 40 µM (inactive)
8,Nc1sc(-c2ccccc2)cc1C(=O)O,> 40 µM (inactive)
9,O=C(/C=C(\O)c1ccc(Cl)cc1)C(=O)NNC(=O)C(O)(c1ccccc1)c1ccccc1,> 40 µM (inactive)
10,O=C(N/N=C/c1ccccc1)c1c(O)c2ccccc2[nH]c1=O,> 40 µM (inactive)
11,Cc1cc(C)c(S(=O)(=O)c2ccccc2)c(OC(=O)c2ccc(Cl)cc2Cl)n1,> 40 µM (inactive)
12,C=C(C(=O)c1ccccc1)C(C)C(=C)C(=O)c1ccccc1,> 40 µM (inactive)
13,O=c1cc(-c2ccccc2Cl)oc2ccc([N+](=O)[O-])c(O)c12,> 40 µM (inactive)
14,CCc1nnc(NC(=O)c2cccc(S(=O)(=O)N(C)c3ccccc3)c2)s1,> 40 µM (inactive)
15,COc1cc(OC)cc(-c2nc3ccccc3c(=O)n2OC(=O)c2ccc(Br)cc2)c1,> 40 µM (inactive)
16,CCn1cc(C(=O)O)c(=O)c2ccc(C)nc21,> 40 µM (inactive)
17,O=S(=O)(ON(c1ccccc1)S(=O)(=O)c1ccccc1)c1ccccc1,> 40 µM (inactive)
18,Fc1cccc2sc(Nc3nnc(-c4ccco4)o3)nc12,> 40 µM (inactive)
19,COC(=O)C1=C(C(=O)OC)C(c2ccccc2O)c2sc(=O)[nH]c2S1 (centres undefined),> 40 µM (inactive)
20,CCCCOC(=O)CSc1nc2c(c(=O)[nH]c(=O)n2C)n1C/C=C(\C)Cl,> 40 µM (inactive)
21,CCc1nc(SCC(=O)c2ccc3c(c2)OCCO3)c2ccccc2n1,> 40 µM (inactive)
22,Cc1cccc(N2C(=O)/C(=C\c3ccc(OC(F)F)cc3)c3ccccc3C2=O)c1,> 40 µM (inactive)
23,COC(=O)C1=C(N)OC2=C(C(=O)CC(C)(C)C2)C1c1cccs1 (centres undefined),> 40 µM (inactive)
24,Cc1ccccc1Oc1cc(-n2ncc(Cl)c(Cl)c2=O)ncn1,> 40 µM (inactive)
25,Cn1c(=O)c2c(nc(Br)n2Cc2ccc3ccccc3c2)n(C)c1=O,> 40 µM (inactive)
26,Cc1ccc2nc(N3C(=O)C(O)=C(C(=O)c4ccco4)C3c3cccs3)sc2c1 (centres undefined),> 40 µM (inactive)
27,CC1=C(C#N)C2C(/C1=N/O)C2(C)C (centres undefined),> 40 µM (inactive)
28,O=C(/C(=C/c1ccccc1)n1cncn1)c1ccc(Cl)cc1Cl,> 40 µM (inactive)
29,O=[N+]([O-])c1cc2oc3c(c2c(C=NCc2ccccc2)c1O)CCCC3,> 40 µM (inactive)
